The values below come from patent US20120316203A1, “Compositions and Methods for Inhibition of Cancers” (THE OHIO STATE UNIVERSITY RESEARCH FOUNDATION, priority 2009, published 2012).

Molecules are shown by their SMILES. Entries after “also recorded” stand apart in the source; their conditions may differ.

One data set deals with A2780 and HSMC cells. As to the kind of experiment: Viability of cells exposed to stand-alone N-hydroxypyrroline or nitroxide (MTT). In kind it is cell-based, human. Particulars: 24 h. The protocol:
(§1) Cell viability was determined by a colorimetric assay using MTT. In the mitochondria of living cells, yellow MTT undergoes a reductive conversion to formazan, giving a purple color. Cells, grown to […] confluence in 75-mm flasks, were trypsinized, counted, seeded in 96-well plates with an average population of 7000 cells/well, incubated overnight, and then treated with the DAPs (H-4073, HO-3867, H4318, or HO-4200; […]) for 24 h. All experiments were done using eight replicates and repeated at least three times. Cell viability was expressed as the percentage of MIT viability of untreated cells.
To determine the role of the N-hydroxypyrroline function in the cytotoxicity, we additionally evaluated the effects of 3-CPH (a stand-alone analog of N-hydroxypyrroline) and 3-CP (a nitroxide version 3-CPH) on A27180 and HSMC cells. […] Overall the viability results implicate the diarylidenyl piperidone group in inducing cytotoxicity and the N-hydroxypyrroline group in protecting noncancerous cells.

The conditions of data set [1]: compared with cisplatin and curcumin; cited from earlier work.
The subject of data set [2] is A2780 cells. Put plainly: Cell viability by MTT assay, A2780 cells. Type of data set: cell-based, human. Particulars: 24 hours, dose series. The protocol: (§2) Cell viability was determined by a colorimetric assay using MTT. In the mitochondria of living cells, yellow MTT undergoes a reductive conversion to formazan, producing a purple color. Cells, grown to […] confluence in 75-mm flasks, were trypsinized, counted, seeded in 96-well plates with an average population of 7,000 cells per well, incubated overnight, and then treated with curcumin, H-4073, or HO-3867 for 24 hours. All experiments were done using eight replicates and, repeated at least thrice.

The test system of data set [3] is A2780 cells. As to the kind of experiment: Cell proliferation by clonogenic assay. The note with it: 24 hours treatment, 7 days growth. Type of data set: cell-based, human. The protocol:
Cell survival was assessed by clonogenic assay. Cells at […] confluence were trypsinized, rinsed, seeded onto 60-mm dishes (5×10^4 cells per dish), grown for 24 hours at 37° C., and treated afterward with H-4073 or HO-3867 for 24 hours. Nontreated cells served as controls. After treatment, the cells were washed twice with PBS, trypsinized, counted, and plated in 60-mm dishes in triplicate and incubated for an additional 7 days. The colonies were then stained with crystal violet (in ethyl alcohol) and counted using an automated colony counter (ColCount, Oxford Optronix). Each experiment was repeated at least five times.

In data set [4] the test system is A2780R, PA-1, SKOV3, OV4, and OVCAR3 human ovarian cancer cell lines. As to the kind of experiment: Cell viability by MTT assay, other ovarian cancer cell lines. In kind it is cell-based. Particulars: 10 μmol/L; 24 h. The protocol:
as §2

The subject of a further data set is hOSE cells. As to the kind of experiment: Cell viability by MTT assay, noncancerous hOSE control cells. In kind it is cell-based, human. The note with it: 20 μmol/L. The protocol: as §2
Data set [5] concerns A2780, A2780R, MCF-7, HCT-116, PC-3, HepG2, A549, and SCC4 human cancer cell lines. As to the kind of experiment: Cytotoxicity of DAPs to cancer cells (MTT). In kind it is cell-based. Particulars: 10 μM, 24 h. The protocol:
as §1

For data set [6], the system named is hOSE cells, HSMC, and HAEC. Put plainly: Cytotoxicity of DAPs to noncancerous cells (MTT). Type of data set: cell-based, human. The protocol: as §1
For data set [7], the system named is A2780 and other cancer cells. As to the kind of experiment: Metabolic conversion to nitroxide in cancer cells (EPR). In kind it is in vitro ADME, human. Particulars: 37° C., EPR. An excerpt: The N-hydroxypyrroline (—NOH) moiety is capable of undergoing a reversible one-electron oxidation to its nitroxide form (—NO; FIG. 9A), which is paramagnetic and detectable by EPR spectroscopy.

A short description of data set [8]: Superoxide radical-scavenging by EPR (xanthine/xanthine oxidase, DEPMPO competition). The note with it: 100 μM compound versus 1 mM DEPMPO. The protocol:
Electron paramagnetic resonance (EPR) spectroscopy was used to quantitatively determine the relative superoxide-scavenging ability of the DAPs in comparison with DEPMPO, a known superoxide scavenger. Superoxide radicals were generated using an aerated solution of PBS (pH 7.4) containing xanthine (0.2 mM), xanthine oxidase (0.02 U/ml), and diethylenetriamine pentaacetic acid (0.1 mM). The superoxide radicals (O2^−) generated by the xanhine-xanthine oxidase reaction were reacted with DEPMPO (1 mM) to form a paramagnetic adduct (DEPMPO-OOH), which was detected using X-band (9.8 GHz) EPR spectroscopy. In separate experimental groups, […], or SOD (500 U/ml) was added to the reaction mixture. […] The generation of the DEPMPO-OOH adduct was measured at 10 min after initiation of the reaction.
Both N-hydroxypyrroline and nitroxide have antioxidant properties including SOD- and catalase-mimetic activity. Therefore, we determined the superoxide radical-scavenging ability of DAPs using a competitive reaction in the presence of DEPMPO. Superoxide radicals were generated using an aerobic solution of xanthine and xanthine oxidase and detected as DEPMPO-OOH adduct by EPR spectroscopy. The DAP compounds (100 μM) were used to compete with 1 mM DEPMPO for the superoxide ions. SOD (4.2 μM) was used as a positive control.

Data set [9] deals with A2780 cells. As to the kind of experiment: Intracellular ROS by DCF fluorescence, A2780. Type of data set: cell-based, human. The note with it: 5 or 10 μM, 12 h. The protocol: (§3) The ROS levels in cells treated with DAPs were determined using H2DCF-DA, a membrane-permeative fluorogenic probe. The acetate and acetoxymethyl ester groups of this probe are enzymatically cleaved inside living cells. The probe can then be oxidized by intracellular oxidants (ROS) to give a product, DCF, which emits a strong, green fluorescence (λex=504 nm; λem=529 nm). The fluorescence intensity is proportional to the level of cellular oxidants. Cells, grown to 80% confluence on 6-mm glass coverslips, were treated with 10 pM H-4073, HO-3867, H-4318, or HO-4200 for 12 h, followed by incubation with H2DCF-DA. The cells were further incubated in the dark for 20 min and washed with protein-free medium, and then fluorescence images were immediately captured with a Nikon Eclipse TE2000-U camera system using excitation/emission at 495/520 nm. The captured images were then analyzed using MetaMorph image analysis software.

Another data set has as its system HSMC. Put plainly: Intracellular ROS by DCF fluorescence, HSMC. Type of data set: cell-based, human. Particulars: 10 μM, 12 h. The protocol:
as §3, with “Cells, grown to 80% confluence on 6-mm glass coverslips, were treated with 10 pM H-4073, HO-3867, H-4318, or HO-4200 for 12 h, followed by incubation with H2DCF-DA.” left out

On to `CC1(C)CC(C(N)=O)C(C)(C)N1[O]` (stereo not shown) [3-CP, 3-carbamoyl proxyl], for which, in the data set with A2780 and HSMC cells, the “cell viability of A2780 and HSMC cells” value is given as “did not show any significant effect”.
As for `CC1(C)CC(C(N)=O)C(C)(C)N1O` (stereo not shown) [3-CPH, N-hydroxy-3-carbamoyl proxyl], in the data set on A2780 and HSMC cells, the “cell viability of A2780 and HSMC cells” value is reported as “did not show any significant effect”.
With `O=C1/C(=C/c2ccccc2F)CNC/C1=C\c1ccccc1F` [DAP-F(o)], the IC50 result in data set [1] is “lower than both cisplatin and curcumin”.
As to `O=C1/C(=C/c2ccc(F)cc2)CNC/C1=C\c1ccc(F)cc1` [H-4073, (3E,5E)-3,5-Bis(4-fluorobenzylidene)piperidin-4-one], the “cytotoxicity, viability of A2780 cells” value in the data set with A2780 cells [2] is recorded as “significantly higher toxicity when compared with curcumin”. Further, the “number of colonies (colony-forming ability)” value in the data set on A2780 cells [3] is “dose-dependent reduction in the number of colonies”. For the same molecule, the “cytotoxicity in other human ovarian cancer cell lines” value in data set [4] was “equally and significantly toxic”. Also, in the data set on hOSE cells, the “cytotoxicity to hOSE cells” value was “significant cytotoxicity”. For the same molecule, the “cell viability of human cancer cell lines” value in data set [5] was “substantial loss of cell viability; also recorded: higher toxicity compared to HO-3867 or HO-4200”. Also, the “viability of hOSE cells” value in data set [6] (same dose for both compounds) is “significantly reduced”. Also, the “EPR spectrum (nitroxide signal) after incubation with A2780 cells” value in data set [7] was “did not show any EPR signal”. Also, in [8], the “effect on the superoxide adduct level” value is reported as “did not show any significant effect”. Further, the “intracellular ROS generation (DCF fluorescence) in A2780 cells” value with A2780 cells [9] is listed as “induced significant ROS generation”. In the data set on HSMC, the “intracellular ROS generation (DCF fluorescence) in HSMC” value (“intracellular ROS generation … in HSMC” below) is given as “induced significant ROS generation”.
Consider `O=C1/C(=C/c2ccc(C(F)(F)F)cc2)CNC/C1=C\c1ccc(C(F)(F)F)cc1` [H-4318, (3E,5E)-3,5-bis(4-trifluoromethylbenzylidene)piperidin-4-one], for which the “cell viability of human cancer cell lines” value in [5] is listed as “substantial loss of cell viability; also recorded: higher toxicity compared to HO-3867 or HO-4200”. In data set [7], the “EPR spectrum (nitroxide signal) after incubation with A2780 cells” value is “did not show any EPR signal”. In data set [8], the “effect on the superoxide adduct level” value was “did not show any significant effect”. For the same molecule, the “intracellular ROS generation (DCF fluorescence) in A2780 cells” value in the data set with A2780 cells [9] is “induced significant ROS generation”. For the same molecule, in the data set with HSMC, the “intracellular ROS generation … in HSMC” value is reported as “induced significant ROS generation”.
On to `CC1(C)C=C(CN2C/C(=C\c3ccc(C(F)(F)F)cc3)C(=O)/C(=C/c3ccc(C(F)(F)F)cc3)C2)C(C)(C)N1O` [HO-4200, 1-[(1-oxyl-2,2,5,5-tetramethyl-2,5-dihydro-1H-pyrrol-3-yl)-methyl]-(3E,5E)-3,5-bis(4-trifluoromethylbenzylidene)piperidin-4-one], for which the “cell viability of human cancer cell lines” value in data set [5] is “substantial loss of cell viability”. The “cell viability of noncancerous (healthy) human cell lines” value in data set [6] (10 NM, 24-h incubation) is “significantly less toxic”. The “diminution of the DEPMPO-OOH concentration” value in data set [8] is recorded as −50%. Moreover, in the data set on A2780 cells [9], the “intracellular ROS generation (DCF fluorescence) in A2780 cells” value is “induced significant ROS generation”. In the data set on HSMC, the “amounts of ROS in HSMC compared to A2780 cells” value is reported as “significantly lower amounts of ROS” and the “intracellular ROS generation … in HSMC” value is given as “induced significant ROS generation”.
As for `COc1cc(/C=C/C(=O)CC(=O)/C=C/c2ccc(O)c(OC)c2)ccc1O` [curcumin, Curcumin, reference compound], the “cytotoxicity, viability of A2780 cells” value in the data set on A2780 cells [2] was “dose-dependent cytotoxicity”.
